In this assay the target is T1, MerTK (Homo sapiens, UniProt Q12866).
T1 construct: Seed HUVECs (10K cells/well) in EBM-2 complete media; host or cells: HUVEC (primary human umbilical vein endothelial cells)
T1 sequence (Q12866 21-999): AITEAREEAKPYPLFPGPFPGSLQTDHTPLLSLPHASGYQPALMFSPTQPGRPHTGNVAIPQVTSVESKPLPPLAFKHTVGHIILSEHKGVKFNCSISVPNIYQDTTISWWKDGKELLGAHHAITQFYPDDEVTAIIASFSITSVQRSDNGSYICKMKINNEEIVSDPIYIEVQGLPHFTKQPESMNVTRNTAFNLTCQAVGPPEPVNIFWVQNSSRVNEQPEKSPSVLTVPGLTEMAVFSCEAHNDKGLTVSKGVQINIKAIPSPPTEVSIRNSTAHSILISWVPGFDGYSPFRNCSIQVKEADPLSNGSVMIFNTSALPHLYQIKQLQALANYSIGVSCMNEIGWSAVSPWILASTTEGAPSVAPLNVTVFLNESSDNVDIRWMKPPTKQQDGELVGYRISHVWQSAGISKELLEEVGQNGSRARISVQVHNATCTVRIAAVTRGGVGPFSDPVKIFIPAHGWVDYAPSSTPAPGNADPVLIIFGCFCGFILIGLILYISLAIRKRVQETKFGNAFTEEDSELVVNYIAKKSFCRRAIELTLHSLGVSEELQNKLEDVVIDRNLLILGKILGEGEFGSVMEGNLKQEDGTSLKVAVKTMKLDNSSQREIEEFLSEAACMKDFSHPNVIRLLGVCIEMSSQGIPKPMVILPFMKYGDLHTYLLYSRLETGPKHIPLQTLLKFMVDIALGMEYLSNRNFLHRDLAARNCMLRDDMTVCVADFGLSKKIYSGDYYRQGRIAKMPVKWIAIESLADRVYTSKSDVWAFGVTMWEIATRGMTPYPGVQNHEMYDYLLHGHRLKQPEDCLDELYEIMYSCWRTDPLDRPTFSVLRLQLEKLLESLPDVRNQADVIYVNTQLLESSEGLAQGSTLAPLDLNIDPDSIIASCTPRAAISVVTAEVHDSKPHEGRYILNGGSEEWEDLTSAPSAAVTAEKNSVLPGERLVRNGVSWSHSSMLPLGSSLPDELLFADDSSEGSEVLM
In words: PAKT HTRF-HUVEC assay (pAkt Ser473 HTRF after anti-human MerTK-XL stimulation). To be noted: HUVEC cells, 1 hour compound, stimulated with anti-human MerTK-XL 1 ug/mL for 10 minutes, read-out: inhibition of MerTK. It counts as cell-based. Put shortly:
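HUVECs starved 3-4 h in basal medium, preincubated with compound 1 h at 37° C, then stimulated 10 min with cross-linked anti-human MerTK antibody (final 1 ug/mL). Lysates read for pAkt (Ser473) by HTRF; EC50 from curve fitting.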
(TR-FRET usually uses a lanthanide donor and a delayed reading to cut background.)

As to `CCCCNc1ncc2c3ccc(CN4CCN(C)CC4)cc3c(=O)n([C@H]3CC[C@H](C(=O)NCC4CC4)CC3)c2n1` [Compound 141, trans-4-(3-(Butylamino)-8-((4-methylpiperazin-1-yl)methyl)-6-oxopyrimido[4,5-c]isoquinolin-5(6H)-yl)-N-(cyclopropylmethyl)cyclohexane-1-carboxamide], the EC50 came to 187 nM.

Consider `CCCCNc1ncc2c3ccc(CN4CCN(C)CC4)cc3c(=O)n([C@H]3CC[C@H](C(=O)N(C)C)CC3)c2n1` [Compound 142, trans-4-(3-(Butylamino)-8-((4-methylpiperazin-1-yl)methyl)-6-oxopyrimido[4,5-c]isoquinolin-5(6H)-yl)-N,N-dimethylcyclohexane-1-carboxamide], for which the EC50 is 115 nM.

In the case of `O=c1c2cc(CN3CCC(c4nnn[nH]4)CC3)ccc2c2cnc(NCC3CC3)nc2n1C1CCC(O)CC1` (centres unmarked) [Compound 143, 8-((4-(1H-tetrazol-5-yl)piperidin-1-yl)methyl)-3-((cyclopropylmethyl)amino)-5-((1s,4s)-4-hydroxycyclohexyl)pyrimido[4,5-c]isoquinolin-6(5H)-one], the EC50 was determined as 13500 nM.

As to `CCOC1CCN(Cc2ccc3c(c2)c(=O)n(C2CCC(O)CC2)c2nc(NCC4CC4)ncc32)CC1` (centres unmarked) [Compound 144, 3-((cyclopropylmethyl)amino)-8-((4-ethoxypiperidin-1-yl)methyl)-5-((1s,4s)-4-hydroxycyclohexyl)pyrimido[4,5-c]isoquinolin-6(5H)-one], the EC50 was determined as 57.3 nM.

Take `CC1(O)CCN(Cc2ccc3c(c2)c(=O)n(C2CCC(O)CC2)c2nc(NCC4CC4)ncc32)CC1` (centres unmarked) [Compound 145, 3-((cyclopropylmethyl)amino)-8-((4-hydroxy-4-methylpiperidin-1-yl)methyl)-5-((1s,4s)-4-hydroxycyclohexyl)pyrimido[4,5-c]isoquinolin-6(5H)-one]: the EC50 amounted to 25.7 nM.

`CN1CCN(Cc2ccc3c(c2)c(=O)n(C2CCC(C)(C)CC2)c2nc(NCC4CCC4)ncc32)CC1` [Compound 146]: the EC50 is 7.4 nM.

For `O=c1c2cc(CN3CCN(C4COC4)CC3)ccc2c2cnc(NCC3CC3)nc2n1[C@H]1CC[C@H](O)CC1` [Compound 147], the EC50 was found to be 46.7 nM.

Take `CC1(O)CCC(n2c(=O)c3cc(CN4CCN(C5COC5)CC4)ccc3c3cnc(NCC4CC4)nc32)CC1` (centres unmarked) [Compound 148]: the EC50 was found to be 16.8 nM.

As to `O=c1c2cc(CN3CCC(N4CCCC4)CC3)ccc2c2cnc(NCC3CC3)nc2n1[C@H]1CC[C@H](O)CC1` [Compound 149], the EC50 came to 53.8 nM.

For `CC1(O)CCC(n2c(=O)c3cc(CN4CCC(N5CCCC5)CC4)ccc3c3cnc(NCC4CC4)nc32)CC1` (centres unmarked) [Compound 150], the EC50 was 33.3 nM.

For the molecule `O=c1c2cc(CN3CCn4ncnc4C3)ccc2c2cnc(NCC3CC3)nc2n1[C@H]1CC[C@H](O)CC1` [Compound 151], the EC50 came out at 64.6 nM.

`O=c1c2cc(CN3CCN(CC(F)(F)F)CC3)ccc2c2cnc(NCC3CC3)nc2n1[C@H]1CC[C@H](O)CC1` [Compound 152]: the EC50 amounted to 50.7 nM.

Regarding `O=c1c2cc(CN3CCN(CC(F)F)CC3)ccc2c2cnc(NCC3CC3)nc2n1[C@H]1CC[C@H](O)CC1` [Compound 153], the EC50 is 51.3 nM.

In the case of `CCCCNc1ncc2c3ccc(CN4CCNCC4)cc3c(=O)n([C@H]3CC[C@H](O)CC3)c2n1` [Compound 154], the EC50 amounted to 66 nM.

In the case of `O=c1c2cc(CN3CCOCC3)ccc2c2cnc(NCC3CC3)nc2n1[C@H]1CC[C@H](O)CC1` [Compound 155], the EC50 was found to be 149 nM.

On to `CC1(O)CCC(n2c(=O)c3cc(CN4CCOCC4)ccc3c3cnc(NCC4CC4)nc32)CC1` (centres unmarked) [Compound 156], for which the EC50 amounted to 116 nM.

Turning to `O=c1c2cc(CN3CCN4CCC[C@H]4C3)ccc2c2cnc(NCC3CC3)nc2n1[C@H]1CC[C@H](O)CC1` [Compound 157], the EC50 worked out at 49.7 nM.

With `O=c1c2cc(N3CCC(N4CCCC4)CC3)ccc2c2cnc(NCC3CC3)nc2n1[C@H]1CC[C@H](O)CC1` [Compound 158], the EC50 was determined as 94.8 nM.

Take `O=c1c2cc(CN3CCN4CCC[C@@H]4C3)ccc2c2cnc(NCC3CC3)nc2n1[C@H]1CC[C@H](O)CC1` [Compound 159]: the EC50 amounted to 48.7 nM.

As to `O=c1c2cc(CN3CCS(=O)(=O)CC3)ccc2c2cnc(NCC3CC3)nc2n1[C@H]1CC[C@H](O)CC1` [Compound 160], the EC50 was 221 nM.

`CCOC(=O)C1CCN(Cc2ccc3c(c2)c(=O)n(C2CCC(O)CC2)c2nc(NCC4CC4)ncc32)CC1` (centres unmarked) [Compound 161]: the EC50 was 25.9 nM.

For `O=c1c2cc(CN3CC[N+]4([O-])CCC3CC4)ccc2c2cnc(NCC3CC3)nc2n1[C@H]1CC[C@H](O)CC1` [Compound 162], the EC50 stood at 11900 nM.

`O=c1c2cc(N3CCN4CCC3CC4)ccc2c2cnc(NCC3CC3)nc2n1C1CCC(O)CC1` (centres unmarked) [Compound 163]: the EC50 is 113 nM.

Consider `O=c1c2cc(N3CCn4ncnc4C3)ccc2c2cnc(NCC3CC3)nc2n1[C@H]1CC[C@H](O)CC1` [Compound 164], for which the EC50 amounted to 296 nM.

As for `O=c1c2cc(CN3CC[S+]([O-])CC3)ccc2c2cnc(NCC3CC3)nc2n1[C@H]1CC[C@H](O)CC1` [Compound 165], the EC50 was found to be 401 nM.

On to `O=c1c2cc(N3CCN(CC(F)(F)F)CC3)ccc2c2cnc(NCC3CC3)nc2n1[C@H]1CC[C@H](O)CC1` [Compound 168], for which the EC50 is 289 nM.

Regarding `O=c1c2cc(N3CCN(CC(F)F)CC3)ccc2c2cnc(NCC3CC3)nc2n1[C@H]1CC[C@H](O)CC1` [Compound 169], the EC50 was found to be 354 nM.

In the case of `O=c1c2cc(CN3CCSCC3)ccc2c2cnc(NCC3CC3)nc2n1[C@H]1CC[C@H](O)CC1` [Compound 170], the EC50 is 36.3 nM.

On to `O=c1c2cc(CN3CCNCC3)ccc2c2cnc(NCC3CC3)nc2n1[C@H]1CC[C@H](O)CC1` [Compound 171], for which the EC50 was determined as 309 nM.

For `O=c1c2cc(N3CCNCC3)ccc2c2cnc(NCC3CC3)nc2n1[C@H]1CC[C@H](O)CC1` [Compound 174], the EC50 turned out to be 170 nM.

`C[C@@H]1CN(Cc2ccc3c(c2)c(=O)n([C@H]2CC[C@H](O)CC2)c2nc(NCC4CC4)ncc32)CCN1C` [Compound 175]: the EC50 amounted to 36.4 nM.

With `CC(C)N1CCN(c2ccc3c(c2)c(=O)n([C@H]2CC[C@H](O)CC2)c2nc(NCC4CC4)ncc32)CC1` [Compound 176], the EC50 worked out at 97.5 nM.

For the molecule `O=c1c2cc(N3CCN(C4CC4)CC3)ccc2c2cnc(NCC3CC3)nc2n1[C@H]1CC[C@H](O)CC1` [Compound 177], the EC50 is 483 nM.

As for `O=c1c2cc(N3CCN(C4COC4)CC3)ccc2c2cnc(NCC3CC3)nc2n1[C@H]1CC[C@H](O)CC1` [Compound 178], the EC50 was found to be 380 nM.

As to `O=c1c2cc(CN3CCN4CCC3CC4)ccc2c2cnc(NCC3CC3)nc2n1[C@H]1CC[C@H](O)CC1` [Compound 179], the EC50 amounted to 115 nM.

In the case of `CN1CCN(Cc2ccc3c(c2)c(=O)n([C@H]2CC[C@H](OC(N)=O)CC2)c2nc(NCC4CC4)ncc32)CC1` [Compound 181], the EC50 was determined as 292 nM.

In the case of `CC(C)(C)N1CCN(Cc2ccc3c(c2)c(=O)n([C@H]2CC[C@H](O)CC2)c2nc(NCC4CC4)ncc32)CC1` [Compound 182], the EC50 was 7.6 nM.

With `CN1CCN(Cc2ccc3c(c2)c(=O)n([C@H]2CC[C@H](OC(N)=O)CC2)c2nc(N(CC4CC4)C(N)=O)ncc32)CC1` [Compound 183], the EC50 was 13800 nM.

With `CN1CCN(Cc2ccc3c(c2)c(=O)n([C@H]2CC[C@H](NC(=O)OC(C)(C)C)CC2)c2nc(NCC4CC4)ncc32)CC1` [Compound 184, trans-tert-Butyl (4-(3-((cyclopropylmethyl)amino)-8-((4-methylpiperazin-1-yl)methyl)-6-oxopyrimido[4,5-c]isoquinolin-5(6H)-yl)cyclohexyl)carbamate], the EC50 is 5140 nM.

For `CN1CCN(Cc2ccc3c(c2)c(=O)n([C@H]2CC[C@H](N)CC2)c2nc(NCC4CC4)ncc32)CC1` [Compound 185, trans-5-(4-aminocyclohexyl)-3-((cyclopropylmethyl)amino)-8-((4-methylpiperazin-1-yl)methyl)pyrimido[4,5-c]isoquinolin-6(5H)-one], the EC50 worked out at 28.7 nM.

`O=c1c2cc(CN3CCC4(CC3)COC4)ccc2c2cnc(NCC3CC3)nc2n1[C@H]1CC[C@H](O)CC1` [Compound 186, trans-8-((2-Oxa-7-azaspiro[3.5]nonan-7-yl)methyl)-3-((cyclopropylmethyl)amino)-5-(4-hydroxycyclohexyl)pyrimido[4,5-c]isoquinolin-6(5H)-one]: the EC50 worked out at 45.4 nM.

For the origin of these results see US11110082B2, “Tyrosine kinase inhibitors” (Rigel Pharmaceuticals, Inc., priority 2016, dated 2021).
